From US20210262008A1, “METHOD OF PERSONALIZED TREATMENT FOR CARDIOMYOPATHY AND HEART FAILURE AND OTHER RELATED DISEASES BY MEASURING RENIN ACTIVITY, PRO-RENIN, PRO-RENIN RECEPTOR LEVELS IN BLOOD” (priority 2018, published 2021)
Read-outs that look alike come from different tables or passages of the source.

Columns and labels:
mouse renin = molecular target: T1, mouse renin (Mus musculus, UniProt P06281); assay: Plasma renin activity assay (FRET substrate) in plasma of treated DCM mice; assay type: in vivo; conditions: female DCM mice, 100 mg/kg/day orally in drinking water from 50 days of age, measured at 90 days, vs DCM control
T1 construct: from tissue; host or cells: plasma (terminal blood, cardiocentesis) of female DCM (mCREB transgenic) mice on a C57BL/6 background
T1 sequence (P06281 72-402): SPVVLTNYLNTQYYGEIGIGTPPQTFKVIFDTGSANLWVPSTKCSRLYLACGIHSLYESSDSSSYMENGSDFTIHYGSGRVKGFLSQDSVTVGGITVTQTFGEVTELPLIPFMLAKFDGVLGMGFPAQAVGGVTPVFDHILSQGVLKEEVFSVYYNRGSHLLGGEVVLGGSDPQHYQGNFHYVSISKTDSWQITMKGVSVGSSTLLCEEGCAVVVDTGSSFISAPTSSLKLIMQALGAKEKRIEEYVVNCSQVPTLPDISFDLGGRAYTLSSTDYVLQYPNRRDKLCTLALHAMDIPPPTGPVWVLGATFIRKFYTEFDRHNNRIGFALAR
Procedure: Plasma samples were aliquoted and stored at −80° C. until analysis.

[1] = tested on: female mice with dilated cardiomyopathy (DCM); assay: Plasma Ang II, aldosterone and HF biomarkers by enzyme immunoassay in DCM mice at 90 days; assay type: in vivo, mouse; conditions: for plasma aldosterone levels: 100 mg/kg/day oral, 100 mg/kg/day
Excerpt: Mice: In the Examples 1-3 below, the mice used were all female littermates with or without dilated cardiomyopathy (DCM) on a C57BL/6 background. DCM is a major cause of HF, which is associated with pathological dilation of the heart ventricles and declines in heart contractile or systolic function. DCM mice express transgene dominant negative CREB transcription factor, specific to cardiomyocytes and develop a consistent progressive DCM and HF similar to humans. In female mice with DCM renal function remains within normal range up to the terminal HF stage, as measured by plasma BUN and creatinine. DCM mice (mCREBTg) are slightly hypotensive at 91 days of age compared to mCREB WT. mCREB mice were randomly assigned to experimental groups. Groups were denoted as WT (n=20), DCM (Control, n=28), and DCM+direct renin inhibitor treatment (+DRI, n=29). At 90-day censorship, dissected organs were weighed, and terminal blood was collected via cardiocentesis with EDTA-aprotinin syringes to prevent proteolysis of targeted proteins. The blood samples were centrifuged at 3000 rpm for 20 min at 4° C. Plasma samples were aliquoted and stored at −80° C. until analysis.
(§1) Dose calculations were based on an average consumption of 5 mL of water/day/mouse. […] The oral dose was chosen to closely mimic the human route of delivery, while not altering the blood pressure, associated with elevated plasma Ang II-aldosterone levels, given the low bioavailability of the drug in rodents. […] No issues with palatability or clinical dehydration were noted throughout the study as assessed by blinded husbandry and veterinary staff. […] The administration was started at 50 days of age to coincide with the previously identified timeline of increased renin activity and development of stage B HF in female DCM mice]. Aliskiren water was provided ad libitum throughout life. All untreated mice (WT and DCM+vehicle) received ad lib 3 ppm hyperchlorinated facility water via an automated watering system (Edstrom, Waterford, Wis., USA).
Enzyme Immunoassay: Plasma Ang II, aldosterone, atrial natriuretic peptide (N terminus-ANP), cyclic guanosine monophosphate (cGMP), neprilysin, and corin levels were measured by enzyme immunoassays according to the manufacturers' protocols (Phoenix Pharm. Inc., Burlingame, Calif., USA; Abcam Inc., Cambridge, Mass., USA; Enzo Life Sciences Inc., Farmingdale, N.Y., USA; Boster Biological Technology, Pleasanton, Calif., USA; USCN Life Science Inc., Houston, Tex., USA).

[2] = tested on: female mice with dilated cardiomyopathy (DCM); assay: Kaplan-Meier survival of female DCM mice; assay type: in vivo, mouse
Excerpt: Mice: In the Examples 1-3 below, the mice used were all female littermates with or without dilated cardiomyopathy (DCM) on a C57BL/6 background. DCM is a major cause of HF, which is associated with pathological dilation of the heart ventricles and declines in heart contractile or systolic function. DCM mice express transgene dominant negative CREB transcription factor, specific to cardiomyocytes and develop a consistent progressive DCM and HF similar to humans. In female mice with DCM renal function remains within normal range up to the terminal HF stage, as measured by plasma BUN and creatinine. DCM mice (mCREBTg) are slightly hypotensive at 91 days of age compared to mCREB WT. mCREB mice were randomly assigned to experimental groups. […]
Dose calculations were based on an average consumption of 5 mL of water/day/mouse. […] No issues with palatability or clinical dehydration were noted throughout the study as assessed by blinded husbandry and veterinary staff. […]
Statistical Analysis: Statistical analyses were performed with GraphPad Prism 7.04 software (GraphPad Software, La Jolla, Calif., USA) using Student's t-test, one-way ANOVA, or two-way ANOVA with Tukey's multiple comparisons test (unless otherwise indicated) and Pearson's correlation. Survival was analyzed using Kaplan-Meier curves with the Mantel-Cox test. […]

[3] = tested on: female mice with dilated cardiomyopathy (DCM); assay: Echocardiography of DCM mice at 90 days of age; assay type: in vivo, mouse
mice = conditions: mouse, in vivo
Procedure: as §1

[4] = orally in rats; cited from earlier work
[5] = in humans; cited from earlier work
blood pressure = conditions: 15-50 mg/kg/day via subcutaneous osmotic pumps, previous studies; cited from earlier work

COCCCOc1cc(C[C@@H](C[C@H](N)[C@@H](O)C[C@H](C(=O)NCC(C)(C)C(N)=O)C(C)C)C(C)C)ccc1OC [aliskiren, aliskiren hemifumarate]
plasma renin activity (PRA) (mouse renin): significantly reduced elevated PRA to normal levels | plasma renin activity (PRA) (mouse renin; listed as DRI-aliskiren): normalized pathological renin activity | plasma Ang II levels ([1]; female DCM mice, 100 mg/kg, DCM+DRI vs DCM+vehicle): no significant difference | plasma aldosterone levels ([1]; female DCM mice, vs DCM control): not modulated by treatment | plasma aldosterone levels ([1]; female DCM mice, vs DCM control, listed as DRI-aliskiren): no significant difference | ANP plasma levels ([1]; vs DCM control): not affected | corin plasma levels ([1]; vs DCM control): not affected | plasma cGMP levels ([1]; vs DCM control): non-significant trend toward lower levels | plasma neprilysin levels ([1]; vs DCM control, P<0.001, listed as DRI): normalized plasma neprilysin levels | plasma neprilysin levels ([1]; vs DCM control, P<0.001, listed as DRI-aliskiren): lowered neprilysin to WT levels | median survival ([2]; 100 mg/kg/day oral, control 103 days, P<0.05): 110 days | outlived the control mice (survival gain) ([2]; median survival vs control): 7% | heart rate ([3]; anesthetized, control 419±10 bpm, P<0.01): 469±14 bpm | cardiac output (CO mL/min) ([3]; vs control DCM mice, P<0.01): improved | systolic function, ejection fraction (EF %) ([3]; vs control DCM mice, P<0.05): improved | systolic function, fractional shortening (FS %) ([3]; vs control DCM mice, P<0.05): improved | palatability or clinical dehydration (mice): No issues | side effects / abnormal clinical observations (mice; 100 mg/kg/day): no side effects or abnormal clinical observations | bioavailability [4]: 2.6% | bioavailability [5]: low | blood pressure (blood pressure): no alteration in blood pressure
